17 compounds from PubChem BioAssay (NCI) can be followed below.

Several values for one entry are separate records, joined by “and”; a condition that tells them apart may be missing. Identical values can stand only once.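 Results reflect a 48-hour exposure of cells in 96-well plates to compound at five concentrations. GI50 is the concentration that inhibits growth by half. TGI marks complete inhibition of growth.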

Test systems include DMS 273 small cell lung; SNB-78 CNS; XF 498 CNS; DMS 114 small cell lung; HOP-18 NSCLC; DU-145 prostate; MCF7 breast; MDA-MB-231 breast; MDA-MB-435; NCI/ADR-RES ovarian.
What all share (experiment): growth of human tumour cells (NCI), 48 h

For `CC1CC2(CC[C@@H]1O)OCCO2` (stereo partly specified), the TGI with DMS 273 small cell lung, in the experiment with SNB-78 CNS and with XF 498 CNS was over 100 µM each time.
On to `CN(C)CCNC(=O)c1ccc(Cl)c2c(Nc3ccc(S(N)(=O)=O)cc3)c3ccccc3nc12`, for which the TGI was found to be 4.63 µM with DMS 114 small cell lung, 8.09 µM in the experiment on DMS 273 small cell lung, 5.92 µM in the experiment with HOP-18 NSCLC and 2.86 µM in the experiment on XF 498 CNS.
For the compound `CC(=O)C1=C([O-])C(C)OC1=O.CC(=O)C1=C([O-])C(C)OC1=O.[NH-]C1CCCC[C@H]1[NH-].[Pt+4]` (stereo unspecified), in the experiment on DMS 273 small cell lung, the GI50 is 44.9 µM and the TGI is over 100 µM. Besides, in the experiment on XF 498 CNS, the GI50 is 66.9 µM and the TGI was over 100 µM.
With `CCN1C(=O)N(CC)C2C1NN=c1s/c(=C3\C(=O)N(C)c4ccccc43)c(=O)n12` (stereo unspecified), the GI50 in the experiment on DU-145 prostate was 2.16 µM; in the experiment with MCF7 breast, 0.373 µM; in the experiment with MDA-MB-231 breast, 1.99 µM; in the experiment with MDA-MB-435, 0.221 µM; with NCI/ADR-RES ovarian it was 0.729 µM. Besides, the TGI is over 100 µM with DU-145 prostate; 31.2 µM in the experiment on MCF7 breast; 34.6 µM in the experiment with MDA-MB-231 breast; 0.663 µM in the experiment on MDA-MB-435; 38.7 µM in the experiment on NCI/ADR-RES ovarian.
Turning to `CCCCCc1c(C)[nH]c(/C=C2\N=C(c3ccc[nH]3)C=C2Oc2ccc(Cl)cc2)c1C`, the GI50 in the experiment with DU-145 prostate is 0.0837 µM and 0.0201 µM; in the experiment with MCF7 breast it was 0.0578 µM and 0.0238 µM; with MDA-MB-231 breast, 0.0269 µM and < 0.01 µM; with MDA-MB-435 it was 0.0587 µM and 0.0352 µM; with NCI/ADR-RES ovarian, 0.377 µM and 0.387 µM. The TGI in the experiment with DU-145 prostate was 3.04 µM and 2.91 µM; in the experiment on MCF7 breast it was 2.15 µM and 3.57 µM; in the experiment on MDA-MB-231 breast, 0.0798 µM and 0.157 µM; in the experiment on MDA-MB-435 it was 0.334 µM and 0.385 µM; in the experiment with NCI/ADR-RES ovarian, 18.8 µM.
Regarding `FC(F)(F)c1ccc2nc(Nc3ccc(Cl)c(Cl)c3)c(-c3ccccc3)nc2c1`, the TGI in the experiment with DMS 273 small cell lung, in the experiment on HOP-18 NSCLC, in the experiment with SNB-78 CNS and with XF 498 CNS was over 100 µM in each case.
Turning to `CC(C)[C@@H](COC(C)(C)C)N=CN1CCc2c([nH]c3ccccc23)C1`, the TGI with DMS 114 small cell lung, with DMS 273 small cell lung, in the experiment on SNB-78 CNS and with XF 498 CNS was over 100 µM each time.
On to `Nc1nc(Nc2cccc(F)c2)nc2ccccc12`, for which the GI50 is 37.3 µM in the experiment with DU-145 prostate; 15.6 µM in the experiment with MCF7 breast; 13.8 µM in the experiment on MDA-MB-231 breast; 16.8 µM in the experiment on MDA-MB-435; 26.7 µM with NCI/ADR-RES ovarian. The TGI is over 100 µM in the experiment on DU-145 prostate; over 100 µM with MCF7 breast; 34.2 µM in the experiment on MDA-MB-231 breast; 36.6 µM in the experiment with MDA-MB-435; 94.3 µM with NCI/ADR-RES ovarian.
Turning to `CCSc1nc(COC(=O)NC)c(COC(=O)NC)n1C`, the TGI in the experiment with DMS 114 small cell lung was over 76.2 µM; in the experiment with DMS 273 small cell lung, over 100 µM; in the experiment with DU-145 prostate, over 23.2 µM; with HOP-18 NSCLC it was over 100 µM; in the experiment on MCF7 breast, over 100 µM; in the experiment on MDA-MB-231 breast it was over 100 µM. In addition, the TGI was over 100 µM with MDA-MB-435, over 100 µM in the experiment with NCI/ADR-RES ovarian and over 85.9 µM in the experiment with SNB-78 CNS.
On to `CCCCCCCCCCCCC(=O)[O-].CCCCCCCCCCCCC(=O)[O-].CCCCCCCCCCCCC(=O)[O-].CCCCCCCCCCCCC(=O)[O-].[Mo+2].[Mo+2]`, for which the GI50 in the experiment on DMS 114 small cell lung is 6.62 µM; with HOP-18 NSCLC, 20.6 µM; with SNB-78 CNS, 19.9 µM; with XF 498 CNS, 11.3 µM. The TGI with DMS 114 small cell lung stood at 26 µM; with HOP-18 NSCLC, 34.9 µM; with SNB-78 CNS, 67.3 µM; with XF 498 CNS, 23.4 µM.
Consider `O=C(O)CCC1CCc2cccc3occ1c23` (stereo unspecified), for which the TGI with DMS 114 small cell lung, with DMS 273 small cell lung and with SNB-78 CNS was over 100 µM throughout.
Consider `Cn1cc(-c2ccc(CNc3cc(-c4cnc5cc(OCCCN6CCCC6)ccn45)ncn3)cc2)cn1`, for which the GI50 in the experiment on DU-145 prostate was 15.1 µM; in the experiment with MCF7 breast, 2.45 µM; in the experiment on MDA-MB-231 breast it was 1.91 µM; in the experiment with MDA-MB-435, 1.71 µM; in the experiment on NCI/ADR-RES ovarian, 5.11 µM. For the same compound, the TGI was 31.5 µM in the experiment with DU-145 prostate; 10.4 µM in the experiment on MCF7 breast; 3.56 µM in the experiment with MDA-MB-231 breast; 3.19 µM with MDA-MB-435; over 100 µM in the experiment on NCI/ADR-RES ovarian.
As to `O=C(Cc1ccccc1)N/N=C(\C1=Nc2ccc([N+](=O)[O-])cc2NC1O)C(O)c1ccc([N+](=O)[O-])cc1` (stereo unspecified), the TGI in the experiment on HOP-18 NSCLC, in the experiment on SNB-78 CNS and with XF 498 CNS was over 100 µM in each case.
On to `COc1ccc2c(C(=O)O)cc3cc(OC)c(OC)cc3c2c1`, for which the TGI with DMS 273 small cell lung, in the experiment with HOP-18 NSCLC, with SNB-78 CNS and in the experiment on XF 498 CNS was over 100 µM throughout.
Consider `NCc1ccc(-n2c(-c3nonc3N)nc3cnccc32)cc1`, for which the GI50 in the experiment on DU-145 prostate was 11.4 µM; in the experiment with MCF7 breast it was 5.19 µM; in the experiment with MDA-MB-231 breast it was over 25 µM; in the experiment on MDA-MB-435, 20.1 µM; in the experiment on NCI/ADR-RES ovarian it was over 25 µM. Moreover, the TGI in the experiment with DU-145 prostate, in the experiment with MCF7 breast, in the experiment with MDA-MB-231 breast, with MDA-MB-435 and in the experiment on NCI/ADR-RES ovarian was over 25 µM each time.
For `CC1=CC(=O)C(C(C)=Nc2ccccc2Cl)C(=O)O1` (stereo unspecified), the GI50 with DU-145 prostate, in the experiment on MCF7 breast, in the experiment with MDA-MB-231 breast, with MDA-MB-435 and in the experiment on NCI/ADR-RES ovarian was over 100 µM in each case. Also, the TGI with DU-145 prostate, in the experiment on MCF7 breast, in the experiment with MDA-MB-231 breast, with MDA-MB-435 and in the experiment on NCI/ADR-RES ovarian was over 100 µM each time.
For `CC(C)(Br)C(=O)/C=C/c1ccccc1`, the TGI is 22.9 µM in the experiment with DU-145 prostate; 15.3 µM in the experiment on MCF7 breast; over 69.8 µM in the experiment on MDA-MB-231 breast; 22.2 µM with MDA-MB-435; over 75.5 µM with NCI/ADR-RES ovarian.
